Source: patent US9771327B2, “Compounds and methods for the treatment of cystic fibrosis” (FLATLEY DISCOVERY LAB, LLC, priority 2013, dated 2017)

Molecular target: T1, human ΔF508-CFTR (Homo sapiens, UniProt P13569, DEL508-508)
T1 construct: expressed in transfected cells
Test: CFTR-YFP high throughput assay, CFTR corrector protocol (YFP iodide flux quench)
Format: cell-based
Details: FRT cells expressing human ΔF508-CFTR and YFP-H148Q/I152L, 24-26 h incubation with compound
Protocol: Assays for Detecting and Measuring the Effect of Compounds on dF508-CFTR Channels CFRT-YFP High Throughput Assay-CFTR Corrector Protocol:
This protocol is designed to selectively screen small molecule compounds for F508del CFTR corrector activities in the HTS YFP flux assay. In this protocol, the cells are incubated with testing compounds for 24 hours, washed with PBS, stimulated with forskolin and a standard potentiator, and read on a 384-well HTS plate reader, such as the Hamamatsu FDDD-6000.
YFP fluorescence intensity is acquired at high speed before and after iodide buffer is injected to the assay cells. Iodide enters the cells via active CFTR channels in the plasma membrane, and quenches the YFP fluorescence. The rate of fluorescence quenching is proportionally related to the total CFTR activities in the cell membrane. dF508-CFTR corrector accelerates YFP quenching by increasing the number of CFTR molecules in the testing cell plasma membrane.
This method was initially developed for bench top plate readers (Galietta et al., 2001), and was adapted to the HTS format (Sui et al. Assay Drug Dev. Technol. 2010).
Fisher Rat Thyroid (FRT) cells stably expressing both human ΔF508-CFTR and a halide-sensitive yellow fluorescent protein (YFP-H148Q/I152L 25,22) (Galietta et al., Am. J. Physiol Cell Physiol, 281(5), C1734, 2001) were cultured on plastic surface in Coon's modified Ham's F12 medium supplemented with FBS 10%, L-glutamine 2 mM, penicillin 100 U/ml, and streptomycin 100 μg/ml. G418 (0.75-1.0 mg/ml) and zeocin (3.2 ug/ml) were used for selection of FRT cells expressing ΔF508-CFTR and YFP. For primary screening, FRT cells were plated into 384-well black wall, transparent bottom microtiter plates (Costar; Corning Inc.) at a cell density of 20,000-40,000 per well. Test compound was applied to the cells at varying concentrations ranging from 2 nM-[…] in either a 2-fold or 3-fold dilution series. Cells were incubated in a cell culture incubator at 37° C. with 5% CO2 for 24-26 h. Assay plates were washed with DPBS media (Thermo, cat #SH30028.02) to remove unbound cells and compound. Stimulation media (25 μL) containing 20 μM Forskolin & 30 μM P3 [6-(Ethyl-phenyl-sulfonyl)-4-oxo-1,4-dihydro-quinoline-3-carboxylic acid 2-methoxy-benzylamide] in Hams F-12 coon's modified media was added to the plate wells and incubated at room temperature for 60-120 min. 25 μL of HEPES-PBS -I buffer (10 mM HEPES, 1 mM MgCl2, 3 mM KCl, 1 mM CaCl2, 150 mM NaI) was then added and fluorescence quench curves (Excitation 500 nm/Emission 540 nm; exposure 136 ms) were immediately recorded on an FDSS-6000 plate reader (Hamamatsu). Quench rates were derived from least squares fitting of the data as described by Sui et al. (2010).

T1 sequence (P13569 with tags, fused parts or gaps DEL508-508): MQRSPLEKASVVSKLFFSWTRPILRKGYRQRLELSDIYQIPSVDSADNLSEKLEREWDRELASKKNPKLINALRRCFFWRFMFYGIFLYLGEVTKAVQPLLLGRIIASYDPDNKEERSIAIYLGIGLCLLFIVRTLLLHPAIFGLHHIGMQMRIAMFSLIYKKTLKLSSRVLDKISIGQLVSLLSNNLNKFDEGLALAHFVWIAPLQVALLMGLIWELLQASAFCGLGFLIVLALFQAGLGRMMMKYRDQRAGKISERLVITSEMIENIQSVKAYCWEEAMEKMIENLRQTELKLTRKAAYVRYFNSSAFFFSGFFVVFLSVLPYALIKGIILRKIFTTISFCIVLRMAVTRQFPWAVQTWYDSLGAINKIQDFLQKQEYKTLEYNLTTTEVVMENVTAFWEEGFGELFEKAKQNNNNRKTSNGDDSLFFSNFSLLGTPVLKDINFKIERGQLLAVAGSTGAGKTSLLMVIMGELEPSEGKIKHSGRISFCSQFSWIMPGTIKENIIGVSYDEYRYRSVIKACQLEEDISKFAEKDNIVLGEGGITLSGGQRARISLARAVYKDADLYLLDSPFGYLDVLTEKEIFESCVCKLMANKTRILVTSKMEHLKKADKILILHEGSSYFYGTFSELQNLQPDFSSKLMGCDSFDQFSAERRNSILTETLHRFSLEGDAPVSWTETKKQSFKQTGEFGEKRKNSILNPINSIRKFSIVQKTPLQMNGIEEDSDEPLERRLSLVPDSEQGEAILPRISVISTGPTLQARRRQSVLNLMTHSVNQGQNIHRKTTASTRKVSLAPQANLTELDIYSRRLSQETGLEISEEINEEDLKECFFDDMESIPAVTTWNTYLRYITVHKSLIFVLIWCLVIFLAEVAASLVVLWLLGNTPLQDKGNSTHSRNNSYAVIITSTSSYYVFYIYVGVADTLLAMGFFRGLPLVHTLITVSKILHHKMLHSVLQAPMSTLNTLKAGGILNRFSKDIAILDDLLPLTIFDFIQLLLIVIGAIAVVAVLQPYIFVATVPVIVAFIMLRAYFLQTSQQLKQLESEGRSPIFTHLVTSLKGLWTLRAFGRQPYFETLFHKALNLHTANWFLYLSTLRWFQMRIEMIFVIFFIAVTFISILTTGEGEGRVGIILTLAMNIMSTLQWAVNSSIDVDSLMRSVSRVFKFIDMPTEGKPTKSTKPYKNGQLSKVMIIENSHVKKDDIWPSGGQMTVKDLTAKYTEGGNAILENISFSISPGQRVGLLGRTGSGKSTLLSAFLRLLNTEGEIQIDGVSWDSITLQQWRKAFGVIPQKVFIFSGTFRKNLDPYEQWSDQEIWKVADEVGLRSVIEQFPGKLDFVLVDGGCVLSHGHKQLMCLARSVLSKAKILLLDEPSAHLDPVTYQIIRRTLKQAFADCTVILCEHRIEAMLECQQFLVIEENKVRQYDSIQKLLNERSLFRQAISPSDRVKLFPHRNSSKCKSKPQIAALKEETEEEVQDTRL

In the case of `COc1cc(S(=O)(=O)N2CCC(n3c(-c4ccccc4)nc4cccnc43)CC2)ccc1Cl` [Example 37], the Emax (normalized to the positive control, read-out: EMAX (% Efficacy, EMAX normalized to the positive control)) is reported as 30 to 80% and the EC50 (stimulated with 20 μM Forskolin & 30 μM P3) is reported as under 10 µM.
